Entries after “also recorded” stand apart in the source; their conditions may differ. Read-outs that look alike come from different tables or passages of the source. Values belong to the compound of their own block, whether it stands above or below them.
Key:
[1] = target: T1, P2Y receptor (turkey erythrocyte membranes) (Meleagris gallopavo, UniProt P49652); experiment: Stimulation of phospholipase C (inositol phosphate formation) in turkey erythrocyte membranes; type: biochemical; conditions: for fold less potent than ATP, turkey erythrocyte: relative to ATP
T1 construct: from tissue; host or cells: washed turkey erythrocytes, ghosts prepared by hypotonic lysis
T1 sequence (P49652 whole entry): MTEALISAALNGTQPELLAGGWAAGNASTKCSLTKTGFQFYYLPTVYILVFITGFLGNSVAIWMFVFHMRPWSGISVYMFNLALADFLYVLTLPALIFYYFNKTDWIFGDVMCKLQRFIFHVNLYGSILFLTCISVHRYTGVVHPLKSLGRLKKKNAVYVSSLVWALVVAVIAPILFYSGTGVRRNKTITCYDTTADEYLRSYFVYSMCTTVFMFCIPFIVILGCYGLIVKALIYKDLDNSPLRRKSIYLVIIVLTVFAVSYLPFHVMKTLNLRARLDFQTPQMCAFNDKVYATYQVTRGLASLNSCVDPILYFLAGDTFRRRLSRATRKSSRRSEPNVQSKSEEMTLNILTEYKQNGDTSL
In short: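 Erythrocytes were labelled 18-24 h at 37 °C with [3H]myoinositol, and ghosts were made by hypotonic lysis. Ghosts (≈175 μg protein) were incubated 5 min at 30 °C in Hepes buffer pH 7.0 with 1 μM GTPγS and nucleotide analogs. Total [3H]inositol phosphates were purified by anion exchange; K0.5 averaged from 3-8 dose-response curves.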

[2] = target: T2, P2X receptor (vas deferens) (Cavia porcellus, UniProt A0A286XVA9); conditions: guinea pig vas deferens; log molar units; footnote e: literature data; cited from earlier work
T2 sequence (A0A286XVA9 1-399): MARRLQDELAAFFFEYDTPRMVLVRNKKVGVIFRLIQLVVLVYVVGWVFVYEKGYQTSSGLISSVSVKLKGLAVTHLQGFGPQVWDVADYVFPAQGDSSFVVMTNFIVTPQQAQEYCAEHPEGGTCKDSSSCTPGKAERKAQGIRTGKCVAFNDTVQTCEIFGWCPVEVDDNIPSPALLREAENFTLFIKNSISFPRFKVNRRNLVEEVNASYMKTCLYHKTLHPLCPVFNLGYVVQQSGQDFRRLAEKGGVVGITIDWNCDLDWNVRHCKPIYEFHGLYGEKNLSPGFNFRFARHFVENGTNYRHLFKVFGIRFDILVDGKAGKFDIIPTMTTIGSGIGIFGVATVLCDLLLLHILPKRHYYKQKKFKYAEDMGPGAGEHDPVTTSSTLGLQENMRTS

[3] = target: T3, P2X receptor (saphenous artery) (Oryctolagus cuniculus, UniProt G1U3D6); experiment: Contraction of rabbit saphenous artery; conditions: for activity/potency in words, saphenous artery: rabbit saphenous artery
T3 construct: and rabbit saphenous artery; from tissue; host or cells: rabbit saphenous artery
T3 sequence (G1U3D6 1-399): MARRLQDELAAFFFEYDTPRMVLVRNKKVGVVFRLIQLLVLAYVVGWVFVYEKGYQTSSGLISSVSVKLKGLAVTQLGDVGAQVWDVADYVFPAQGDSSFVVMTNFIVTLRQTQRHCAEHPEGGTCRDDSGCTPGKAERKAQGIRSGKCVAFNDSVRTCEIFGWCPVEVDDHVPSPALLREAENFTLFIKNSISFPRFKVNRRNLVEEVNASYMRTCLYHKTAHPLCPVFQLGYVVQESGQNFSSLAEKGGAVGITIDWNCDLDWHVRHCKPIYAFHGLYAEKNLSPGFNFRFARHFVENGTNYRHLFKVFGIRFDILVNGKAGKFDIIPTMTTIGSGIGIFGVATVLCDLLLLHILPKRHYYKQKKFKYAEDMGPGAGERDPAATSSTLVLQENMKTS
In short: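 Contraction of isolated rabbit saphenous artery, standard organ-bath methods; responses at 10 μM expressed as percentage of contraction produced by 1 μM α,MeATP. Highest analogue concentrations tested were 3-30 […].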

[4] = system: P2Y receptor (aorta endothelium); experiment: Relaxation of noradrenalin-contracted rabbit aorta; conditions: for relaxation pD2, aorta: rabbit aorta, log molar units
[5] = target: T4, P2Y receptor (taenia coli) (Cavia porcellus, UniProt P59902); experiment: Relaxation of carbachol-contracted guinea pig taenia coli
T4 construct: Relaxant responses mediated via P2Y receptors were examined in guinea pig taenia coli; from tissue; host or cells: guinea pig taenia coli (carbachol-contracted)
T4 sequence (P59902 whole entry): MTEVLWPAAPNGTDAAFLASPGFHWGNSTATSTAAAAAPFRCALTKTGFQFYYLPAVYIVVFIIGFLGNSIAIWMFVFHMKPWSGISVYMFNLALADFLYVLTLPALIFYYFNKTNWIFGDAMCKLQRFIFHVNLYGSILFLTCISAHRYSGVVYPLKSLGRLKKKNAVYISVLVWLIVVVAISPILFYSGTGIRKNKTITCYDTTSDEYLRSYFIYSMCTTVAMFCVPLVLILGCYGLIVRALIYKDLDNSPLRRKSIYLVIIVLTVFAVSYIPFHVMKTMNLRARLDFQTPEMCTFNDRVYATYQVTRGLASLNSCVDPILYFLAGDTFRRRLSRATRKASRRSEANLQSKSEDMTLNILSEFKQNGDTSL
In short: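 Guinea pig taenia coli precontracted with 50 nM carbachol; relaxation to applied P2Y agonists expressed as percentage relaxation against negative log molar agonist concentration.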

[6] = target: P2Y receptor (mesenteric artery); experiment: Relaxation of rabbit mesenteric artery; conditions: for relaxation pD2, mes. artery: log molar units
[7] = target: T4, P2Y receptor (taenia coli); conditions: cited from earlier work
[8] = target: T5, adenylyl cyclase linked P2Y receptor (C6 rat glioma cells) (Rattus norvegicus, UniProt Q9EPX4); experiment: Inhibition of adenylyl cyclase in C6 rat glioma cells; type: cell-based; conditions: versus phospholipase C linked receptor
T5 construct: endogenous in cells; host or cells: C6 rat glioma cells
T5 sequence (Q9EPX4 whole entry): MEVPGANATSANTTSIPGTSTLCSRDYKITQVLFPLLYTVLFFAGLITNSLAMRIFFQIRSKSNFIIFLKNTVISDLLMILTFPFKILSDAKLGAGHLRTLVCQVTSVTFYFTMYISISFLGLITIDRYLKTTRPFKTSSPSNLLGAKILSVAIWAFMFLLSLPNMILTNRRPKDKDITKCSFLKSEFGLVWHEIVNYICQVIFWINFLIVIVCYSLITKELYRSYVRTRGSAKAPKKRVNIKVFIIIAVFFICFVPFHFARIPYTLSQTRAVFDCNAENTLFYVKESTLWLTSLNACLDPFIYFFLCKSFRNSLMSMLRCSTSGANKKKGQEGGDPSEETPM
Procedure: This example illustrates the inhibition of adenylyl cyclase activity in C6 rat glioma cells, as a function of the presence of certain ATP analogs in the medium in which the C6 cells were cultured.
Cells were labelled by incubation for 2 hours in the presence of 1 to 2 mCi of tritiated adenine/ml in the medium. Cells were washed twice with HEPES (20 mM, pH 7.5)-buffered Eagle's medium and then preincubated for 10 minutes at 37° C. with fresh medium containing 200 μM 3-isobutyl-1-methylxanthine. Agonist incubations were initiated by the simultaneous addition of 10 μM isoproterenol and various concentrations of nucleotides. The reactions were stopped after 10 minutes of aspiration of the nucleotide-containing medium and addition of 1 ml of ice-cold 5% trichloroacetic acid.

[9] = target: T2, P2X receptor (vas deferens); experiment: Contraction of guinea pig isolated vas deferens
[10] = target: T6, P2X receptor (urinary bladder) (Cavia porcellus, UniProt A0A286XVA9); experiment: Contraction of guinea pig isolated urinary bladder detrussor muscle; conditions: guinea pig urinary bladder
T6 construct: guinea pig isolated urinary bladder detrussor muscle; from tissue; host or cells: guinea pig isolated urinary bladder detrusor muscle
Procedure: In FIG. 14, the x-axis is also marked in units of the negative log of the molar concentration of applied putative P2Y receptor agonists and the y-axis is marked in units of the percentage relaxation of the 1 μM noradrenalin-induced contraction of rabbit aorta endothelium. In FIGS. 15-16, the x-axis is marked in units of the negative log of the molar concentration of applied putative p^2X receptor agonists and the y-axis is marked in units of the percentage contraction relative to a standard dose of KCl (i.e., 60 mM), as assessed in guinea pig isolated urinary bladder detrussor muscle (FIG. 15) and guinea pig isolated vas deferens (FIG. 16).

[11] = system: P2X and P2Y receptors; conditions: Satchell and Maguire; cited from earlier work
[12] = system: P2X and P2Y receptors; experiment: Overall activity in the seven P2X and P2Y preparations
[13] = system: P2X receptors; experiment: Overall activity in P2X receptor systems
[14] = system: P2Y receptors; experiment: Overall activity in P2Y receptor systems
Procedure: Phospholipase C activity: Stimulation of inositol phosphate formation by compounds of the present invention was measured in turkey erythrocyte membranes as described by Harden et al., supra and Boyer et al., supra. The K0.5 values were averaged from 3-8 independently determined dose-response curves for each compound. Briefly, one ml of washed turkey erythrocytes was incubated in inositol-free medium (DMEM; Gibco) with 0.5-1 mCi of 2-[^3 H]myoinositol (20 Ci/mmol; American Radiolabeled Chemicals Inc., St. Louis, Mo.)for 18-24 h in a humidified atmosphere of 95% air 5% CO2 at 37° C. Erythrocyte ghosts were prepared by rapid lysis in hypotonic buffer (5 mM sodium phosphate, pH 7.4, 5 mM MgCl2, 1 mM EGTA) as described by Boyer et al., supra. Phospholipase C activity was measured in 25 μl of [^3 H]inositol-labeled ghosts (≈175 μg of protein, 200-500,000 cpm/assay) in a medium containing 424 μM CaC12, 0.91 mM MgSO4, 2 mM EGTA, 115 mM KCl, 5 mM KH2 PO4, and 10 mM Hepes, pH 7.0. Assay (100 μl or 200 μl final volume) contained 1 μM GTPγS and the indicated concentrations of nucleotide analogs. Ghosts were incubated at 30° C. for 5 min, and total [^3 H]inositol phosphates were quantitated after purification by anion exchange chromatography according to Harden et al. (supra) and Boyer et al. (supra).
Muscular relaxation/contraction: Relaxant responses mediated via P2Y receptors were examined in guinea pig taenia coli, rabbit aorta, and rabbit mesenteric artery, as described by Hoyle et al. (Br. J. Pharmacol., 107, 367-374 (1992a)), Burnstock et al., (Br. J. Pharmacol., 90, 383-391 (1987a)), and Rubino et al., (Eur. J. Pharmacol., 212, 237-240 (1992)). Contractile responses mediated via P2X receptors were examined in the guinea pig urinary bladder and vas deferens, and rabbit saphenous artery, also using standard methods (see Hoyle et al., supra., 1992; Hoyle et al., Br. J. Pharmacol., 99, 617-621 (1990); and Burnstock et al., Br. J. Pharmacol., 90, 111-120 (1987b)).

[15] = turkey erythrocyte membranes, mean ± S.E.M. for at least 2 determinations, read-out: phosphatidyl inositol metabolism (K0.5, nM) erythrocyte
[16] = listed as 3'-Benzylamino-3'-deoxy-ATP
[17] = listed as 3'-benzylamino-3'-deoxy-ATP
[18] = listed as 3'-benzylamino-3'-deoxyATP

Structure (SMILES): Nc1ncnc2c1ncn2[C@@H]1O[C@H](COP(=O)(O)OP(=O)(O)OP(=O)(O)O)[C@@H](O)[C@H]1O [ATP, adenosine-5'-triphosphate, reference compound]
EC50 ([1]; K0.5, turkey erythrocyte membranes, read from graph): 10000 nM | EC50 [1, 15]: 2800 ± 700 nM | contraction pD2, vas [2]: 3.5 | EC50 [3]: 1780 µM | activation at 10 µM ([3]; read-out: response at 10 μM relative to the contraction produced by 1 μM α,MeATP, saph. artery): 5% | relaxation pD2, aorta [4]: 4.5 | EC50 [5]: 0.631 µM | relaxation pD2, taenia coli ([5]; guinea pig taenia coli, log molar units): 6.2 ± 0.08 | relaxation pD2, mes. artery [6]: 6.0

Structure (SMILES): Nc1nc(Cl)nc2c1ncn2[C@@H]1O[C@H](COP(=O)(O)OP(=O)(O)OP(=O)(O)O)[C@@H](O)[C@H]1O [2-Cl-ATP, 2-chloro-ATP, reference compound]
relaxation pD2, taenia coli ([7]; guinea pig taenia coli, log molar units, footnote e: literature data): 7.2 | EC50 [1, 15]: 72 ± 19 nM | EC50 ([1]; turkey erythrocyte membranes, read-out: K0.5): 72 nM | relaxation pD2, aorta [4]: 5.8 | selectivity for the adenylyl cyclase linked receptor, in words [8]: not observed | relaxation pD2, mes. artery [6]: 6.2

activity/potency in words, vas deferens [9]: inactive in the vas deferens | EC50 [1, 15]: 47400 nM | activity/potency in words, bladder [10]: limited activity in the urinary bladder
Structure (SMILES): Nc1ncnc2c1nc(Br)n2[C@@H]1O[C@H](COP(=O)(O)OP(=O)(O)OP(=O)(O)O)[C@@H](O)[C@H]1O [8-Br-ATP, 8-Bromoadenosine 5'-triphosphate]
activity at P2 receptors, in words [11]: somewhat active at P2 receptors | overall activity in words, all preparations [12]: relatively ineffective at the receptors tested in this study

activity/potency in words, vas deferens [9, 16]: substantially more potent than ATP | activity/potency in words, vas deferens [9, 18]: high potency | overall activity in words, P2X systems [13]: specificity for P2X receptors | overall activity in words, P2Y systems ([14]; listed as 3'-benzylamino-3'deoxyATP): inactive in the P2Y receptor systems | EC50 [1, 15]: > 100000 nM | activity/potency in words, bladder [10, 16]: substantially more potent than ATP | activity/potency in words, bladder [10, 18]: high potency | activity/potency in words, saphenous artery [3]: inactive
Structure (SMILES): Nc1ncnc2c1ncn2[C@@H]1O[C@H](COP(=O)(O)OP(=O)(O)OP(=O)(O)O)[C@@H](NCc2ccccc2)[C@H]1O [3'-Benzylamino-3'-deoxyATP, 3'-N-Benzylamino-3'-deoxyadenosine 5'-triphosphate]
activity/potency in words, vas deferens [9]: the most potent agonist at vas deferens P2X receptors | activity/potency in words, vas deferens [9, 17]: potent agonists in the vas deferens and urinary bladder | overall activity in words, P2Y systems [14]: either inactive or only a weak agonist in P2Y -systems | activity/potency in words, bladder [10]: highly potent at urinary bladder P2X receptors | activity/potency in words, bladder [10, 17]: potent agonists in the vas deferens and urinary bladder | activity/potency in words, saphenous artery [3, 17]: at best weak agonists in the saphenous artery | activity/potency in words, saphenous artery [3, 18]: not rabbit saphenous artery P2X receptors | overall activity in words, all preparations [12]: active only in the vas deferens and urinary bladder

Structure (SMILES): Nc1ncnc2c1ncn2[C@@H]1O[C@H](COP(O)(=S)OP(=O)(O)OP(=O)(O)O)[C@@H](O)[C@H]1O (stereo partly drawn) [ATP-α-S (S-isomer), reference compound]
fold more potent than ATP, taenia coli ([7]; relative to ATP, see Burnstock et al. 1984): approximately 10 -fold | EC50 ([1]; phosphatidyl inositol metabolism (K0.5, nM) erythrocyte, turkey erythrocyte membranes, mean ± S.E.M. for at least 2 determinations): 8930 ± 4440 nM | fold less potent than ATP, turkey erythrocyte [1]: 2 -fold | relaxation pD2, mes. artery [6]: 6.6

Structure (SMILES): CNc1ncnc2c1ncn2[C@@H]1O[C@H](COP(=O)(O)OP(=O)(O)OP(=O)(O)O)[C@@H](O)[C@H]1O [N^6 -Me-ATP, N^6 -Methyl-adenosine 5'-triphosphate]
overall activity in words, P2X systems ([13]; listed as N^6 -methyl ATP): inactive in P2X preparations | overall activity in words, P2X systems ([13]; listed as N^6 -methyl-ATP): inactive in the P2X receptor systems | overall activity in words, P2Y systems [14]: inactive in vascular smooth muscle | fold less potent than ATP, turkey erythrocyte [1]: 7 -fold | EC50 [1, 15]: 19000 nM | activity/potency/selectivity in words, aorta ([4]; rabbit aorta endothelial P2Y receptor): significantly less activated | selectivity for the adenylyl cyclase linked receptor, in words [8]: slightly selective of the phospholipase C-linked receptor | EC50 [5]: 1.58 µM | activity/potency in words, taenia coli ([5]; guinea pig taenia coli, listed as N^6 -methyl ATP): equipotent with ATP in the taenia coli | activity/potency in words, taenia coli ([5]; guinea pig taenia coli, listed as N^6 -methylATP): selectivity; also recorded: at an equal level as if activated by ATP itself | activity/potency in words, mesenteric artery [6]: not activated at concentrations of the N^6 -methyl derivative as high as 10^-5 M

From patent US5620676A, “Biologically active ATP analogs” (priority 1995, dated 1997)
